Source: patent US20020137929A1, “1 - (3-heterocyclylphenyl) isothiourea, -isourea, -guanidine and -amidine herbicidal agents” (Intellectual Property Department, BASF Aktiengesellschaft, priority 1998, published 2002)

How the values were obtained:
CASOB (Sicklepod) = assay: Postemergence herbicidal evaluation; assay type: in vivo, Cassia obtusifolia; conditions: postemergence
Method in brief: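 ~2-wk seedlings; postemergence spray, 40 psi; vehicle 1:1 acetone:water + 0.5% Tween 20; rate ≈0.0156–0.500 kg/ha; greenhouse hold; scored 4–5 wk after treatment, 0–9 scale vs control; repeat tests averaged.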

[1] = system: IPOSS (Morningglory Spp.); assay: Postemergence herbicidal evaluation; assay type: in vivo, Ipomoea Spp.
Procedure: In the tests, seedling plants are grown in jiffy flats for about two weeks. The test compounds are dispersed in 50/50 acetone/water mixtures containing 0.5% TWEEN®20, a polyoxyethylene sorbitan monolaurate surfactant of Atlas Chemical Industries, in sufficient quantities to provide the equivalent of about 0.0156 kg to 0.500 kg per hectare of active compound when applied to the plants through a spray nozzle operating at 40 psi for a predetermined time. After spraying, the plants are placed on greenhouse benches and are cared for in accordance with conventional greenhouse procedures. From four to five weeks after treatment, the seedling plants are examined and rated according to the rating system set forth below. Where more than one test is involved for a given compound, the data are averaged.
Plant species employed in these evaluations are reported by header abbreviation, common name and scientific name.
(§1) Results of herbicide evaluation are expressed on a rating scale (0-9). The scale is based upon a visual observation of plant stand, vigor, malformation, size, chlorosis and overall plant appearance as compared with a control.

[2] = system: IPOSS (Morningglory Spp.); assay: Preemergence herbicidal evaluation; assay type: in vivo, Ipomoea Spp.; conditions: rated 4-5 weeks after treatment
Text: as §1
The preemergence herbicidal activity of the test compounds of the present invention is exemplified by the following tests in which the seeds of a variety of monocotyledonous and dicotyledonous plants are separately mixed with potting soil and planted on top of approximately one inch of soil in separate pint cups. After planting, the cups are sprayed with the selected aqueous acetone solution containing test compound in sufficient quantity to provide the equivalent of about 0.0156 to 0.500 kg per hectare of test compound per cup. The treated cups are then placed on greenhouse benches, watered and cared for in accordance with conventional greenhouse procedures. From four to five weeks after treatment, the tests are terminated and each cup is examined and rated according to the rating system provided in Example 37.
The compounds evaluated are reported by compound number given in Example 37.

ORYSAT (Rice, Tebonnet) = assay: Preemergence herbicidal evaluation; assay type: in vivo, Oryza sativa, (L.) Tebonnet; conditions: rated 4-5 weeks after treatment
Method in brief: (§2)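 Rating at 4–5 wk post-spray on a 0–9 visual scale vs control. Application: aqueous acetone, ~0.0156–0.500 kg/ha, to soil surface after seeding, preemergence.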

[3] = system: TRZAWR (Wheat, Winter, cv Riband); assay: Preemergence herbicidal evaluation; assay type: in vivo, Triticum aestivum; conditions: rated 4-5 weeks after treatment
Method in brief: as §2

[4] = system: SAGPY (Arrowhead (Pygmaea)); assay: Preemergence weed control under flooded paddy conditions; assay type: in vivo, Sagittaria pygmaea; conditions: rated 3-4 weeks after treatment
Method in brief: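 Seeds or propagules sown in top 0.5 cm of silt loam soil, flooded 1.5 to 3 cm above surface throughout. Compound in 50/50 v/v aqueous/acetone pipetted into flood water at about 0.0313 to 0.500 kg/ha. Visual 0-9 rating versus control after three to four weeks in greenhouse.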

MOOVA (Monochoria) = assay: Postemergence weed control under flooded paddy conditions; assay type: in vivo, Monochoria vaginalis; conditions: postemergence weeds, 3-4 weeks after treatment
Method in brief: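 With weeds 3 to 5 cm tall and rice at the 1.5 to 2.5 leaf stage, containers were flooded and water held 1.5 to 3 cm above soil. Compounds in 50/50 v/v aqueous/acetone went into the flood water at about 0.0313 to 0.500 kg/ha a.i. Effects were visually rated 0–9 against controls after three to four weeks in the greenhouse.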

[5] = system: GLXMAW (Soybean, Williams); assay: Preemergence herbicidal evaluation; assay type: in vivo, Glycine max, (L.) Merr. cv Williams; conditions: rated 4-5 weeks after treatment
Method in brief: as §2

## CN1C(=O)C(F)SC1=Nc1cc(N2C(=O)C3=C(CCCC3)C2=O)c(F)cc1Cl (stereo not drawn) [Compound 5, N-{4-chloro-2-fluoro-5-[(5-fluoro-3-methyl-4-oxo-2-thiazolidinylidene)amino]phenyl}-1-cyclohexene-1,2-dicarboximide]
CASOB (Sicklepod); rate 0.0157 kg/ha
  CASOB herbicidal rating: 0.0
CASOB (Sicklepod); rate 0.0313 kg/ha
  CASOB herbicidal rating: 0.0
CASOB (Sicklepod); rate 0.0625 kg/ha
  CASOB herbicidal rating: 0.0
CASOB (Sicklepod); rate 0.1250 kg/ha
  CASOB herbicidal rating: 0.0
CASOB (Sicklepod); rate 0.2500 kg/ha
  CASOB herbicidal rating: 0.0
CASOB (Sicklepod); rate 0.5000 kg/ha
  CASOB herbicidal rating: 9.0
[1]; rate 0.0157 kg/ha
  IPOSS herbicidal rating: 0.0
[1]; rate 0.0313 kg/ha
  IPOSS herbicidal rating: 1.0
[1]; rate 0.0625 kg/ha
  IPOSS herbicidal rating: 2.0
[1]; rate 0.1250 kg/ha
  IPOSS herbicidal rating: 4.0
[1]; rate 0.2500 kg/ha
  IPOSS herbicidal rating: 9.0
[1]; rate 0.5000 kg/ha
  IPOSS herbicidal rating: 9.0
[2]; rate 0.0625 kg/ha
  IPOSS preemergence herbicidal rating: 0.0
[2]; rate 0.1250 kg/ha
  IPOSS preemergence herbicidal rating: 0.0
[2]; rate 0.2500 kg/ha
  IPOSS preemergence herbicidal rating: 0.0
[2]; rate 0.5000 kg/ha
  IPOSS preemergence herbicidal rating: 0.0
ORYSAT (Rice, Tebonnet); rate 0.0625 kg/ha
  ORYSAT preemergence herbicidal rating: 0.0
ORYSAT (Rice, Tebonnet); rate 0.1250 kg/ha
  ORYSAT preemergence herbicidal rating: 0.0
ORYSAT (Rice, Tebonnet); rate 0.2500 kg/ha
  ORYSAT preemergence herbicidal rating: 2.0
ORYSAT (Rice, Tebonnet); rate 0.5000 kg/ha
  ORYSAT preemergence herbicidal rating: 2.0
[3]; rate 0.0625 kg/ha
  TRZAWR preemergence herbicidal rating: 0.0
[3]; rate 0.1250 kg/ha
  TRZAWR preemergence herbicidal rating: 0.0
[3]; rate 0.2500 kg/ha
  TRZAWR preemergence herbicidal rating: 1.0
[3]; rate 0.5000 kg/ha
  TRZAWR preemergence herbicidal rating: 2.0
[4]; 0.1250 kg/ha
  Herbicidal rating SAGPY: 0.0
[4]; 0.2500 kg/ha
  Herbicidal rating SAGPY: 0.0
[4]; 0.5000 kg/ha
  Herbicidal rating SAGPY: 0.0
MOOVA (Monochoria); rate 0.1250 kg/ha
  Herbicidal rating MOOVA: 1.0
MOOVA (Monochoria); rate 0.2500 kg/ha
  Herbicidal rating MOOVA: 2.0
MOOVA (Monochoria); rate 0.5000 kg/ha
  Herbicidal rating MOOVA: 4.0

## CN1C(=O)CSC1=Nc1cc(N2C(=O)C3=C(CCCC3)C2=O)c(F)cc1Cl [Compound 1, N-{4-chloro-2-fluoro-5-[(3-methyl-4-oxo-2-thiazolidinylidene)amino]phenyl}-1-cyclohexene-1,2-dicarboximide]
CASOB (Sicklepod); rate 0.0157 kg/ha
  CASOB herbicidal rating: 0.0
CASOB (Sicklepod); rate 0.0313 kg/ha
  CASOB herbicidal rating: 2.0
CASOB (Sicklepod); rate 0.0625 kg/ha
  CASOB herbicidal rating: 4.0
CASOB (Sicklepod); rate 0.1250 kg/ha
  CASOB herbicidal rating: 4.0
CASOB (Sicklepod); rate 0.2500 kg/ha
  CASOB herbicidal rating: 6.0
CASOB (Sicklepod); rate 0.5000 kg/ha
  CASOB herbicidal rating: 7.0
[1]; rate 0.0157 kg/ha
  IPOSS herbicidal rating: 6.0
[1]; rate 0.0313 kg/ha
  IPOSS herbicidal rating: 9.0
[1]; rate 0.0625 kg/ha
  IPOSS herbicidal rating: 9.0
[1]; rate 0.1250 kg/ha
  IPOSS herbicidal rating: 9.0
[1]; rate 0.2500 kg/ha
  IPOSS herbicidal rating: 9.0
[1]; rate 0.5000 kg/ha
  IPOSS herbicidal rating: 9.0
[2]; rate 0.0313 kg/ha
  IPOSS preemergence herbicidal rating: 1.0
[2]; rate 0.0625 kg/ha
  IPOSS preemergence herbicidal rating: 6.0
[2]; rate 0.1250 kg/ha
  IPOSS preemergence herbicidal rating: 7.0
[2]; rate 0.2500 kg/ha
  IPOSS preemergence herbicidal rating: 6.0
[2]; rate 0.5000 kg/ha
  IPOSS preemergence herbicidal rating: 8.0
[5]; rate 0.0313 kg/ha
  GLXMAW preemergence herbicidal rating: 0.0
[5]; rate 0.0625 kg/ha
  GLXMAW preemergence herbicidal rating: 2.0
[5]; rate 0.1250 kg/ha
  GLXMAW preemergence herbicidal rating: 2.0
[5]; rate 0.2500 kg/ha
  GLXMAW preemergence herbicidal rating: 4.0
[5]; rate 0.5000 kg/ha
  GLXMAW preemergence herbicidal rating: 3.0
ORYSAT (Rice, Tebonnet); rate 0.0313 kg/ha
  ORYSAT preemergence herbicidal rating: 0.0
ORYSAT (Rice, Tebonnet); rate 0.0625 kg/ha
  ORYSAT preemergence herbicidal rating: 0.0
ORYSAT (Rice, Tebonnet); rate 0.1250 kg/ha
  ORYSAT preemergence herbicidal rating: 2.0
ORYSAT (Rice, Tebonnet); rate 0.2500 kg/ha
  ORYSAT preemergence herbicidal rating: 3.0
ORYSAT (Rice, Tebonnet); rate 0.5000 kg/ha
  ORYSAT preemergence herbicidal rating: 6.0
[3]; rate 0.0313 kg/ha
  TRZAWR preemergence herbicidal rating: 2.0
[3]; rate 0.0625 kg/ha
  TRZAWR preemergence herbicidal rating: 4.0
[3]; rate 0.1250 kg/ha
  TRZAWR preemergence herbicidal rating: 3.0
[3]; rate 0.2500 kg/ha
  TRZAWR preemergence herbicidal rating: 6.0
[3]; rate 0.5000 kg/ha
  TRZAWR preemergence herbicidal rating: 6.0
[4]; 0.0313 kg/ha
  Herbicidal rating SAGPY: 0.0
[4]; 0.0625 kg/ha
  Herbicidal rating SAGPY: 0.0
[4]; 0.1250 kg/ha
  Herbicidal rating SAGPY: 0.0
[4]; 0.2500 kg/ha
  Herbicidal rating SAGPY: 0.0
[4]; 0.5000 kg/ha
  Herbicidal rating SAGPY: 0.0
MOOVA (Monochoria); rate 0.0313 kg/ha
  Herbicidal rating MOOVA: 4.0
MOOVA (Monochoria); rate 0.0625 kg/ha
  Herbicidal rating MOOVA: 4.5
MOOVA (Monochoria); rate 0.1250 kg/ha
  Herbicidal rating MOOVA: 4.5
MOOVA (Monochoria); rate 0.2500 kg/ha
  Herbicidal rating MOOVA: 5.0
MOOVA (Monochoria); rate 0.5000 kg/ha
  Herbicidal rating MOOVA: 5.5
